Holding throughout (assay): Bliss excess, mean over the matrix (fraction); higher = more synergy
The subject of assay [1] is ECC10 (Gastric Carcinoma). The method in brief: (§1)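 After 24 hours at 37°C and 5% CO2 in 1536-well plates, cells in DMEM/F12 or RPMI plus 10% FBS received two-drug dose matrices for 72 hours. Viability came from CellTiter-Glo 2.0 luminescence and was scaled as inhibition, anchored at 0 by vehicle wells and at 1 by blank wells. Combination Emax is taken as the second-highest inhibition in the matrix, and Bliss excess as the observed combination effect less EA + EB − EA·EB, with EA and EB the single-agent effects.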

The test system of assay [2] is COLO-824 (Breast Carcinoma). The method in brief:
as §1

Assay [3] has as its system PA-1 (Ovarian Carcinoma). In short, it runs like this:
as §1

The test system of assay [4] is NCI-H1650 (Lung Adenocarcinoma). In short, it runs like this: as §1
The test system of assay [5] is NCI-H1666 (Lung Adenocarcinoma). In short, it runs like this: as §1
Assay [6] has as its system JSC-1 (B-Cell Non-Hodgkin's Lymphoma). The method in brief:
as §1

In assay [7] the test system is A549 (Lung Adenocarcinoma). In short, it runs like this:
as §1

Assay [8] has as its system CAPAN-2 (Pancreatic Carcinoma). The method in brief:
as §1

Assay [9] concerns FU97 (Gastric Carcinoma). The method in brief: as §1
Assay [10] has as its system Hs-445 (Non-Cancerous). The method in brief:
as §1

In assay [11] the test system is NCI-H64 (Small Cell Lung Carcinoma). The method in brief:
as §1

The test system of assay [12] is KARPAS-422 (B-Cell Non-Hodgkin's Lymphoma). The method in brief: as §1
Assay [13] relates to A498 (Kidney Carcinoma). In short, it runs like this: as §1
Assay [14] concerns SK-MES-1 (Squamous Cell Lung Carcinoma). The method in brief:
as §1

The test system of assay [15] is A3-KAW (B-Cell Non-Hodgkin's Lymphoma). The method in brief:
as §1

The test system of assay [16] is LN-405 (Glioblastoma). The method in brief: as §1
In assay [17] the test system is COR-L311 (Small Cell Lung Carcinoma). In short, it runs like this: as §1
The test system of assay [18] is BICR22 (Oral Cavity Carcinoma). In short, it runs like this: as §1
In assay [19] the test system is CCK-81 (Colorectal Carcinoma). In short, it runs like this: as §1
Assay [20] has as its system ONS-76 (Other Solid Carcinomas). The method in brief: as §1

For `CN(C)CCCOc1ccc(-c2ccc3ncc4c(c3c2)n(C2CCOCC2)c(=O)n4C)cn1` [AZD0156] + C=CCn1c(=O)c2cnc(Nc3ccc(N4CCN(C)CC4)cc3)nc2n1-c1cccc(C(C)(C)O)n1 [AZD1775] (first compound max 1 µM, partner max 1 µM), the Bliss excess in assay [1] is -0.0379; in [2], -0.0024; in assay [3], -0.0546; in assay [4], -0.0451; in assay [5], -0.0371; in assay [6], -0.0102. Further, the Bliss excess in assay [7] was -0.0807; in [8], -0.0709; in [9], -0.0101; in [10], 0.0015; in assay [11], -0.0931; in [12], -0.0476. Besides, the Bliss excess is -0.0532 in assay [13]; -0.0176 in assay [14]; 0.0707 in assay [15]; -0.0478 in assay [16]; -0.115 in assay [17]; -0.0146 in [18]. Also, the Bliss excess was -0.0039 in assay [19] and -0.0487 in assay [20].
For the compound `CN(C)CCCOc1ccc(-c2ccc3ncc4c(c3c2)n(C2CCOCC2)c(=O)n4C)cn1` [AZD0156] + CCN(CCO)CCCOc1ccc2c(Nc3cc(CC(=O)Nc4cccc(F)c4)[nH]n3)ncnc2c1 [AZD2811] (first compound max 1 µM, 7x7, partner max 1 µM), the Bliss excess in assay [1] was -0.0028; in assay [2] it was -0.0565; in assay [3] it was 0.038; in assay [4], -0.0571; in assay [5], -0.0661; in assay [6], 0.0161. Moreover, the Bliss excess in assay [7] is -0.0431; in assay [8], -0.0637; in assay [9], -0.0947; in assay [10], 0.045; in assay [11], 0.0802; in [12], 0.0004. For the same compound, the Bliss excess in assay [13] was -0.0302; in assay [14], -0.0458; in assay [15], 0.121; in assay [16] it was -0.0356; in assay [17] it was 0.0607; in assay [18] it was 0.0091. In addition, the Bliss excess was -0.0302 in assay [19] and -0.0169 in assay [20].
On to `CN(C)CCCOc1ccc(-c2ccc3ncc4c(c3c2)n(C2CCOCC2)c(=O)n4C)cn1` [AZD0156] + C[C@@H]1COCCN1C2=NC(=NC(=C2)C3(CC3)[S@](=N)(=O)C)C4=C5C=CNC5=NC=C4 [AZD6738] (first compound max 1 µM, 7x7, partner max 10 µM), for which the Bliss excess in [1] was -0.0104; in [2], 0.0425; in [3], -0.0238; in [4], -0.0294; in [5] it was -0.0274; in assay [6] it was 0.0233. In addition, the Bliss excess is -0.0652 in assay [7]; -0.0591 in assay [8]; -0.0353 in assay [9]; -0.0409 in assay [10]; -0.0368 in assay [11]; -0.0444 in [12]. Moreover, the Bliss excess in assay [13] was -0.0347; in assay [14], -0.0406; in assay [15], 0.0876; in assay [16], -0.0236; in assay [17] it was 0.0265; in assay [18] it was -0.0626. Moreover, the Bliss excess in assay [19] was -0.0161; in [20], 0.0096.
Turning to `CN(C)CCCOc1ccc(-c2ccc3ncc4c(c3c2)n(C2CCOCC2)c(=O)n4C)cn1` [AZD0156] + O=C(c1cc(Cc2n[nH]c(=O)c3ccccc23)ccc1F)N1CCN(C(=O)C2CC2)CC1 [Olaparib] (first compound max 3 µM, partner max 3 µM), the Bliss excess in assay [1] is 0.0522; in assay [2], 0.0729; in assay [3] it was 0.122; in assay [4], -0.0462; in assay [5], 0.0049; in assay [6], 0.171. Moreover, the Bliss excess is 0.0069 in assay [7]; -0.0535 in assay [8]; -0.0154 in assay [9]; -0.0211 in [10]; -0.0106 in [11]; 0.0171 in [12]. The Bliss excess in assay [13] was 0.047; in assay [14] it was -0.0199; in assay [15] it was 0.276; in [16], -0.0375; in assay [17], 0.092; in assay [18], -0.0003. Also, the figures for the Bliss excess in assay [19] and in assay [20] were -0.0131 and 0.0366, respectively.
Take `C=CCn1c(=O)c2cnc(Nc3ccc(N4CCN(C)CC4)cc3)nc2n1-c1cccc(C(C)(C)O)n1` [AZD1775] + C1CN(CCC1(C(=O)N[C@@H](CCO)C2=CC=C(C=C2)Cl)N)C3=NC=NC4=C3C=CN4 [Capivasertib] (first compound max 3 µM, partner max 3 µM): the Bliss excess in assay [1] is -0.0156; in assay [2] it was -0.0289; in assay [3] it was -0.0229; in assay [4], -0.0473; in assay [5], -0.0773; in assay [6], -0.0146. In addition, the Bliss excess is 0.015 in assay [7]; -0.0949 in assay [8]; 0.0946 in assay [9]; -0.1 in [10]; 0.0202 in assay [11]; -0.0691 in [12]. Besides, the Bliss excess was -0.0315 in [13]; 0.04 in [14]; 0.0032 in assay [15]; -0.0436 in [16]; -0.0057 in assay [17]; 0.0369 in [18]. Moreover, the values for the Bliss excess in [19] and in assay [20] were -0.0214 and -0.0258, respectively.
For `C=CCn1c(=O)c2cnc(Nc3ccc(N4CCN(C)CC4)cc3)nc2n1-c1cccc(C(C)(C)O)n1` [AZD1775] + C[C@@H]1COCCN1C2=NC(=NC(=C2)C3(CC3)[S@](=N)(=O)C)C4=C5C=CNC5=NC=C4 [AZD6738] (first compound max 1 µM, partner max 10 µM), the Bliss excess in assay [1] is 0.0364; in assay [2] it was 0.0691; in assay [3], -0.01; in assay [4] it was -0.0054; in [5], 0.0189; in assay [6], 0.0409. For the same compound, the Bliss excess in assay [7] was -0.0313; in [8] it was -0.0608; in assay [9] it was -0.0414; in assay [10], -0.0017; in assay [11] it was 0.0015; in [12], -0.0445. Further, the Bliss excess in assay [13] was -0.0536; in assay [14] it was -0.0223; in [15] it was 0.0285; in assay [16] it was -0.0025; in assay [17] it was 0.0133; in [18] it was 0.0233. Also, the values for the Bliss excess in assay [19] and in assay [20] were -0.0359 and -0.0256, respectively.
Consider `C=CCn1c(=O)c2cnc(Nc3ccc(N4CCN(C)CC4)cc3)nc2n1-c1cccc(C(C)(C)O)n1` [AZD1775] + O=C(c1cc(Cc2n[nH]c(=O)c3ccccc23)ccc1F)N1CCN(C(=O)C2CC2)CC1 [Olaparib] (first compound max 1 µM, partner max 10 µM), for which the Bliss excess in [1] was -0.019; in assay [2], -0.0423; in assay [3], -0.0037; in assay [4], -0.0643; in [5] it was 0.0278; in assay [6], -0.0434. Moreover, the Bliss excess in assay [7] is -0.0667; in [8] it was -0.0576; in [9], -0.148; in [10] it was 0.0156; in [11], -0.0547; in assay [12] it was -0.0648. Moreover, the Bliss excess in assay [13] is -0.067; in assay [14], -0.0915; in assay [15], 0.0183; in [16], -0.0583; in [17], -0.0848; in assay [18], -0.106. Also, the values for the Bliss excess in [19] and in assay [20] were 0.042 and -0.0826, respectively.

The values above are taken from the supplement of paper PMC11061612.
